Reference: patent EP4105215A1, “CO-CRYSTAL OF APIXABAN WITH A CARBOXYLIC ACID” (University of Limerick, priority 2021, dated 2022)

Legend:
[1] = Dissolution / solubility in PBS 6.8 analysed by HPLC; type: physicochemical; conditions: PBS 6.8 at 37°C, triplicate
Procedure: 25 mg equivalent of APX was sieved to 75-100µm using standard-mesh sieve and the resulting slurry was added to 500 mL phosphate buffer solution (PBS) 6.8 at 37°C stirring at 100 rpm. 1mL aliquots were taken at 1 3, 5, 10, 15, 30, 60, 120, 240, 480, 720 and 1440 minutes. Each aliquot filtered through a 0.45 µm Whattmann syringe filter. 500 µL of filtered aliquot and 500 µL of methanol were pipetted into a vial and injected to HPLC. All dissolution experiments for APX and cocrystals were carried in triplicates.
The dissolution aliquots were analysed using a Shimadzu (LC-20A) HPLC instrument with a Gemini® C18 (250 x 4.6 x 5 µm) column. The wavelength was set to 235nm with an injection volume of 10 µL and a flow rate of 1 mL/min with the oven set at 40°C.
Physicochemical properties such as PBS 6.8 solubility were analysed by high performance liquid chromatography (HPLC). […] Table 4: Solubility of APX and respective cocrystals in PBS 6.8 at 37°C

[2] = single 10 mg dose; cited from earlier work

For COc1ccc(-n2nc(C(N)=O)c3c2C(=O)N(c2ccc(N4CCCCC4=O)cc2)CC3)cc1 [APX, 1-(4-methoxyphenyl)-7-oxo-6-(4-(2-oxopiperidin-1-yl)phenyl)-4,5,6,7-tetrahydro-1H-pyrazolo[3,4-c]pyridine-3-carboxamide], the “Acute, T= 60 mins Conc” value ([1]; 60 mins) is listed as 0.0241 mg/mL, the “Chronic, T= 720mins Conc” value ([1]; 720 mins) is listed as 0.0303 mg/mL and the oral bioavailability [2] is listed as “about 50%”.
